The nature of data set [1]: Dissolution test of Drug 2 dispersions (as in Example 1, with exceptions). To be noted: 2000 μg/mL if all of the drug had dissolved, PBS pH 6.5, 37° C. Format: physicochemical. As for the experimental part: For this test, samples containing 7.2 mg of the Example 1 dispersion were added to microcentrifuge tubes, in duplicate. The tubes were placed in a 37° C. temperature-controlled chamber, and 1.8 mL PBS at pH 6.5 and having an osmotic pressure of 290 mOsm/kg was added. The samples were mixed using a vortex mixer for about 60 seconds. The samples were centrifuged at 13,000 G at 37° C. for 1 minute. The resulting supernatant solutions were then sampled and diluted 1:6 by volume with methanol and then analyzed by high-performance liquid chromatography (HPLC) at a UV absorbance of 256 nm using a Waters Symmetry C8 column and a mobile phase consisting of 15% (0.2% H3PO4)/85% methanol. The contents of the tubes were mixed on the vortex mixer and allowed to stand undisturbed at 37° C. until the next sample was taken. […]
The solubility and physical properties of the dispersions of Example 4 and Control C2 were determined as in Example 1 with the following exceptions. For measurement of concentration enhancement, sufficient quantities of the dispersion were added to the microcentrifuge tubes such that the concentration if all of the drug had dissolved would be 2000 μg/mL. Samples were analyzed by HPLC, with absorbance at 297 nm (Hewlett Packard 1100 HPLC, Zorbax SB C18 column, 35% acetonitrile/65% H2O). The same properties of a control of crystalline Drug 2 (CD2) alone were also determined.

The nature of data set [2]: Dissolution test of Drug 1 dispersions in PBS (concentration enhancement). The data set is classed as physicochemical. To be noted: PBS pH 6.5, 37° C. The protocol:
For this test, samples containing 7.2 mg of the Example 1 dispersion were added to microcentrifuge tubes, in duplicate. The tubes were placed in a 37° C. temperature-controlled chamber, and 1.8 mL PBS at pH 6.5 and having an osmotic pressure of 290 mOsm/kg was added. The samples were mixed using a vortex mixer for about 60 seconds. The samples were centrifuged at 13,000 G at 37° C. for 1 minute. The resulting supernatant solutions were then sampled and diluted 1:6 by volume with methanol and then analyzed by high-performance liquid chromatography (HPLC) at a UV absorbance of 256 nm using a Waters Symmetry C8 column and a mobile phase consisting of 15% (0.2% H3PO4)/85% methanol. The contents of the tubes were mixed on the vortex mixer and allowed to stand undisturbed at 37° C. until the next sample was taken. […] Control 1 and crystalline Drug 1 alone were tested using the same procedure.
The concentrations of drug obtained in these samples were used to determine the value of the maximum concentration of drug in the first ninety minutes (Cmax90) and the area under the curve of drug concentration versus time in the first ninety minutes (AUC90).

Each structure is given as a SMILES string.

With `O=C(N[C@@H](Cc1ccccc1)[C@@H](O)C(=O)N1C[C@@H](O)[C@@H](O)C1)c1cc2cc(Cl)ccc2[nH]1` [CD2, 5-chloro-1H-indole-2-carboxylic acid [(1S)-benzyl-3-((3R,4S)-dihydroxypyrroldin-1-yl-)-(2R)-hydroxy-3-oxypropyl]amide], in data set [1], the AUC90 is on record as 12,800 min · μg/mL and the Cmax90 stood at 149 µg/mL.
As to `CCOC(=O)N1c2ccc(C(F)(F)F)cc2C(N(Cc2cc(C(F)(F)F)cc(C(F)(F)F)c2)C(=O)OC)CC1CC` (stereo not drawn) [Crystalline Drug 1, 4-[(3,5-bis-trifluoromethyl-benzyl)-methoxycarbonyl-amino]-2-ethyl-6-trifluoromethyl-3,4-dihydro-2H-quinoline-1-carboxylic acid ethyl ester], the AUC90 in data set [2] (Drug 1, area under the curve of drug concentration versus time in the first ninety minutes) was less than 88 µg·min/mL. In addition, in data set [2] (Drug 1, maximum concentration of drug in the first ninety minutes), the Cmax90 is less than 1 µg/mL. Also, the “Drug 1 Concentration” value in data set [2] (7.2 mg dispersion in 1.8 mL, time 0 min) is 0 µg/mL; in data set [2] (time 4 min), less than 1 µg/mL; in data set [2] (time 10 min) it was less than 1 µg/mL; in data set [2] (time 20 min), less than 1 µg/mL; in data set [2] (time 40 min), less than 1 µg/mL; in data set [2] (time 90 min), less than 1 µg/mL. Further, the “Drug 1 Concentration” value in data set [2] (time 1200 min) was less than 1 µg/mL. Moreover, the AUC in data set [2] (elapsed time 0 min) was 0 µg·min/mL; in data set [2] (elapsed time 4 min), less than 2 µg·min/mL; in data set [2] (elapsed time 10 min), less than 8 µg·min/mL; in data set [2] (elapsed time 20 min) it was less than 18 µg·min/mL; in data set [2] (elapsed time 40 min) it was less than 38 µg·min/mL; in data set [2] (elapsed time 90 min) it was less than 88 µg·min/mL. Further, the exposure (AUC) in data set [2] (elapsed time 1200 min) is <1,200 min · μg/mL.

What is called AUC is the area under the concentration-time curve, a measure of exposure.

Source of the values: patent US7780988B2, “Method for making homogeneous spray-dried solid amorphous drug dispersions using pressure nozzles” (Bend Research, Inc., priority 2002, dated 2010).
